Literature values, collected in patent publication US20180369129A1, “MICROBIOME-COMPATIBLE COSMETICS” (AOBIOME LLC, priority 2015, published 2018).

Assays:
NOS [1] = conditions: reduction in basal NO levels
NOS [2] = conditions: rat pancreatic islets; through the induction of iNOS

## COC(=O)[C@@H](N)CCCNC(=N)N[N+](=O)[O-] [L-NAME]
NOS [1]
  effect of chronic inhibition of NOS on heart and kidneys: generalized fibrosis of the heart and kidneys
NOS [2]
  total NO production: increases total NO production
